# Measured values taken from article PMC7615343, “Fluorination Influences the Bioisostery of Myo-Inositol Pyrophosphate Analogs” (Chemistry (Weinheim an der Bergstrasse, Germany), 2023).
# Legend:
# [1] = target: T1, PPIP5K2^1-366 (human PPIP5K2 kinase domain) (Homo sapiens, UniProt O43314); settings: published value; read-out: IC50, inhibition of the reverse kinase activity of PPIP5K2KD; cited from earlier work
# T1 construct: one comprised residues 1–366; made in house
# T1 sequence (O43314 1-366): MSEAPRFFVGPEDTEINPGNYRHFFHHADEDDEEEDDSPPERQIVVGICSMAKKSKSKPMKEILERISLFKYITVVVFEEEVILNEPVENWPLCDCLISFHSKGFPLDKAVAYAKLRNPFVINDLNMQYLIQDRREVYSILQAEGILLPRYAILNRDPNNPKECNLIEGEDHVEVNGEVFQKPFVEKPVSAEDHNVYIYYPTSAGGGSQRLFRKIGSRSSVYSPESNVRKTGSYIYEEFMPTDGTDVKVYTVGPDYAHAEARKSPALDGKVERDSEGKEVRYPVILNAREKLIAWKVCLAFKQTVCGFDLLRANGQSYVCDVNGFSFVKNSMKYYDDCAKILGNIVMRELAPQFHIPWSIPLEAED
# [2] = target: T1, PPIP5K2^1-366 (human PPIP5K2 kinase domain); test: Isothermal titration calorimetry of ligand binding to PPIP5K2KD; settings: ITC, 25°C; for ΔH / ΔS: 7.5 μM PPIP5K2^1-366, 75 μM ligand, pH 7.2; for Kd: 7.5 μM PPIP5K2^1-366 in cell, 75 μM ligand in syringe, pH 7.2, 1mM AMP-PNP, 1mM MgCl2, read-out: Kd (apparent)
# Description: We next used isothermal titration calorimetry (ITC) to analyze the interactions of PPIP5K2^KD with 5PP-IP5 and each of the four analogs studied herein (Figure 5A-E). […] At the same time, the enthalpic gain for binding was largest for 5PCF2Am-IP5 and 5PA-IP5. A possible explanation may be that these two ligands are less strongly hydrated, due to their lower overall charge. The enthalpic cost for dehydration of 5PCF2Am-IP5 and 5PA-IP5 is therefore lower, compared to the other molecules, resulting in a higher enthalpic gain overall. A less strongly hydrated ligand will also release fewer water molecules upon binding, consistent with the lower entropic gains.
# Figure 5 Analysis of ligand binding to the PPIP5K2^KD by ITC. Test solutions contained 7.5 μM of PPIP5K2^1-366 in the sample cell and 75 μM ligand in the syringe. Other details are provided in the Methods Section. Representative thermograms (1 of 3 replicates) are shown for titration of either (A) 5PP-IP5; (B) 5PCPF2P-IP5; (C) 5PCP-IP5; (D) 5PCF2Am-IP5; (E) 5PA-IP5. (F) Corresponding thermodynamic data. TEXT PRINTED IN THE PICTURE: (F) 5PP-: Kd (nM): 123 ± 13; ΔH (kJ/mol): -26 ± 2; ΔS (kJ/mol/deg): 0.046 ± 0.008 | (F) 5PCF2-: Kd (nM): 246 ± 10; ΔH (kJ/mol): -16 ± 1; ΔS (kJ/mol/deg): 0.072 ± 0.005 | (F) 5PCP-: Kd (nM): 100 ± 10; ΔH (kJ/mol): -20 ± 2; ΔS (kJ/mol/deg): 0.067 ± 0.016 | (F) 5PCF2-Am-: Kd (nM): 90 ± 13; ΔH (kJ/mol): -38 ± 2; ΔS (kJ/mol/deg): 0.007 ± 0.004 | (F) 5PA-: Kd (nM): 90 ± 7; ΔH (kJ/mol): -36 ± 3; ΔS (kJ/mol/deg): 0.013 ± 0.008 […]
# (§1) Calorimetry experiments were performed using a MicroCal PEAQ-ITC (Malvern Panalytical) with 7.5 μM recombinant PPIP5K21-366 in the sample cell and 75 μM of ligand in the syringe, each of which was maintained at 25°C in buffer containing 20 mM HEPES, pH 7.2, 150 mM KCl, 0.05 mM EDTA, 1mM AMP-PNP, 1mM MgCl2 as indicated. The sample cell (volume = 204 μL) and the syringe were cleaned before each run. Thermograms were constructed from 13 injections, each of which involved 3 μL of ligand delivered for 6 s, with an equilibration time of 150-300 s between each injection. The stirring speed was set to 750 rpm. Data were fitted to a single binding site model using the analysis software provided by the manufacturer. At least three runs were performed for each condition.
# Protein expression and purification.
# Throughout the main text, PPIP5K2KD is deployed as an abbreviation for the human PPIP5K2 kinase domain. However, two different constructs were utilized, as described in the figure legends and within the Methods section below: one comprised residues 1–366 (PPIP5K21-366) and the other comprised residues 41–366 (PPIP5K241-366). Both constructs were expressed and purified as described previously.[6] The human DIPP1 construct (residues 1-148) was expressed and purified as described in [7]. […]
# The molecular graphics representations wer e prepared with the program PyMol (Schrödinger, LLC). Atomic coordinates an d structure factors have been deposited with the Protein Data Bank with accession codes 8G9C, 8G9D, 8G9E.
# PPIP5K2KD reverse kinase assay […]
# Isothermal titration calorimetry
# as §1, with “PPIP5K21–366” for “PPIP5K21-366”, “2 04 µL)” for “204 μL)”, “µL” for “μL”, “150 -300” for “150-300”, “cond ition. […]” for “condition.”
Compound,IC50 [1],ΔH [2],ΔS [2],Kd [2]
O=C(CP(=O)(O)O)O[C@@H]1[C@@H](OP(=O)(O)O)[C@H](OP(=O)(O)O)[C@H](OP(=O)(O)O)[C@H](OP(=O)(O)O)[C@H]1OP(=O)(O)O [5PA-IP5],129 nM,-8.6 ± 0.72 kcal/mol,0.013 ± 0.008 kJ/mol/deg,90 ± 7 nM
O=C(N[C@@H]1[C@@H](OP(=O)(O)O)[C@H](OP(=O)(O)O)[C@H](OP(=O)(O)O)[C@H](OP(=O)(O)O)[C@H]1OP(=O)(O)O)C(F)(F)P(=O)(O)O [5PCF2Am-IP5],–,-9.08 ± 0.48 kcal/mol,0.007 ± 0.004 kJ/mol/deg,90 ± 13 nM
"O=P(O)(O)O[C@H]1[C@@H](OP(=O)(O)O)[C@H](OP(=O)(O)O)[C@@H](OP(=O)(O)OP(=O)(O)O)[C@H](OP(=O)(O)O)[C@H]1OP(=O)(O)O [5PP-IP5, 5-diphosphoinositol pentakisphosphate]",–,-6.21 ± 0.48 kcal/mol,0.046 ± 0.008 kJ/mol/deg,123 nM
